From patent US8084470B2, “Substituted nicotinamide compounds and uses thereof” (Gruenenthal GmbH, priority 2007, dated 2011) come the findings set out here.

Experiment [1] relates to male rats (Sprague-Dawley). Kind of experiment: Formalin test, rat (second phase). The experiment is classed as in vivo. The settings on record: pain rate vs vehicle control, late phase. As to the method:
The investigations to determine the antinociceptive activity of the compounds were carried out in the formalin test on male rats (Sprague-Dawley, 150-170 g).
In the formalin test, a distinction is made between the first (early) phase (0-15 min after formalin injection) and the second (late) phase (15-60 min after formalin injection) (D. Dubuisson, S. G. Dennis, Pain 4, 161-174 (1977)). The early phase, as a direct reaction to the formalin injection, represents a model for acute pain, while the late phase is regarded as a model for persistent (chronic) pain (T. J. Coderre, J. Katz, A. L. Vaccarino, R. Meizack, Pain, Vol. 52, p. 259, 1993).
The compounds according to the invention were investigated in the second phase of the formalin test in order to obtain information about the activity of substances in the case of chronic/inflammatory pain.
A nociceptive reaction was induced in freely mobile test animals by means of a single subcutaneous formalin injection (50 μl, 5% strength) into the dorsal side of the right rear paw, the reaction manifesting itself in the following behaviour parameters: lifting and holding of the affected paw (score 1), shaking or twitching (score 2), licking and biting (score 3). The differing behaviors induced by the formalin injection were detected continuously by observation of the animals in the late phase of the formalin test and were weighted differently in an evaluation. Normal behavior, in which the animal puts its weight on all four paws equally, was recorded as score 0. The time of administration before the formalin injection was chosen in dependence on the mode of administration of the compounds according to the invention (intraperitoneal: 15 min, intravenous: 5 min). After injection of substances that have antinociceptive activity in the formalin test, the described behaviours (score 1-3) of the animals are reduced or even eliminated. […] The nociceptive behaviour was calculated as the so-called pain rate (PR). […] Based on the PR calculations, the activity of the substance was determined as the change compared with the control in percent.

Experiment [2] deals with T1, hKCNQ2/3 (Homo sapiens, UniProt O43525+O43526). Kind of experiment: Fluorescence assay using a voltage sensitive dye. It counts as cell-based. Also on record: expressed in transfected cells; host or cells: CHO-K1. As to the method:
Biological Data Fluorescence Assay Using a Voltage Sensitive Dye
Human CHO-K1 cells expressing KCNQ2/3 channels are cultivated adherently at 37° C., 5% CO2 and 95% humidity in cell culture bottles (e.g. 80 cm^2 TC flasks, Nunc) with DMEM-high glucose (Sigma Aldrich, D7777) including 10% FCS (PAN Biotech, e.g. 3302-P270521) or alternatively with MEM Alpha Medium (1×, liquid, Invitrogen, #22571), 10% fetal calf serum (FCS) (Invitrogen, #10270-106, heat-inactivated) and the necessary selection antibiotics.
Before being distributed for the measurements, the cells are washed with a 1×DPBS buffer without Ca^2+/Mg^2+ (e.g. Invitrogen, #14190-094) and detached from the bottom of the culture vessel by means of Accutase (PAA Laboratories, #L11-007) (incubation with Accutase for 15 min at 37° C.). The cell count then present is determined using a CASY™ cell counter (TCC model, Schärfe System) in order subsequently to apply, according to density optimization for the individual cell line, 20,000-30,000 cells/well/100 μl of the described nutrient medium to 96-well measuring plates of the Corning™ CellBIND™ type (Flat Clear Bottom Black Polystyrene Microplates, #3340). Incubation is then carried out for one hour at room temperature, without gassing or adjusting the humidity, followed by incubation for 24 hours at 37° C., 5% CO2 and 95% humidity.
The voltage-sensitive fluorescent dye from the Membrane Potential Assay Kit (Red™ Bulk format part R8123 for FLIPR, MDS Analytical Technologies™) is prepared by dissolving the contents of a vessel Membrane Potential Assay Kit Red Component A in 200 ml of extracellular buffer (ES buffer, 120 mM NaCl, 1 mM KCl, 10 mM HEPES, 2 mM CaCl2, 2 mM MgCl2, 10 mM glucose; pH 7.4). After removal of the nutrient medium, the cells are washed with 200 μl of ES buffer, then covered with a layer of 100 μl of the dye solution prepared above and incubated for 45 min at room temperature with the exclusion of light.
The fluorescence measurements are carried out with a BMG Labtech FLUOstar™ or BMG Labtech NOVOstar™ or BMG Labtech POLARstar™ instrument (525 nm excitation, 560 nm emission, Bottom Read mode). After incubation of the dye, 50 μl of the test substances in the desired concentrations, or 50 μl of ES buffer for control purposes, are introduced into separate cavities of the measuring plate and incubated for 30 min at room temperature while being shielded from light. The fluorescence intensity of the dye is then measured for 5 min and the fluorescence value F1 of each well is thus determined at a given, constant time. 15 μL of a 100 mM KCl solution ([…]) are then added to each well. The change in fluorescence is subsequently measured until all the relevant measured values have been obtained (mainly 5-30 min). At a given time after KCl application, a fluorescence value F2 is determined, in this case at the time of the fluorescence peak.
For calculation, the fluorescence intensity F2 is compared with the fluorescence intensity F1, and the agonistic activity of the target compound on the potassium channel is determined therefrom. F2 and F1 are calculated as follows:
[formula] In order to determine whether a substance has an agonistic activity,
[formula] for example, can be compared with
[formula] of control cells.
[formula] is determined by adding to the reaction batch only the buffer solution instead of the substance to be tested, determining the value F1K of the fluorescence intensity, adding the potassium ions as described above and measuring a value F2K of the fluorescence intensity. Then F2K and F1K are calculated as follows:
[formula] A substance has an agonistic activity on the potassium channel when
[formula] is greater than
[formula] Independently of the comparison of
[formula] it is also possible to conclude that a target compound has agonistic activity if an increase in
[formula] is to be observed as the dosage of the target compound increases. […]

Experiment [3] concerns the target T1, hKCNQ2/3. As to the kind of experiment: Voltage clamp (patch-clamp) measurements. The experiment is classed as cell-based. Set-up: expressed in transfected cells; host or cells: CHO-K1 (stably transfected). The settings on record: for MAN rel eff @ 10 μm [RG = 1]: test substance 10 μM at −40 mV, increase in current standardized to retigabine (10 μM) effect = 1. The procedure:
Voltage Clamp Measurements
In order to confirm a KCNQ2/3-agonistic action of the substances electrophysiologically, patch-clamp measurements (Hamill et al., 1981) were carried out in voltage clamp mode on a stably transfected hKCNQ2/3 CHO-K1 cell line. After formation of the gigaseal, the cells were first clamped at a holding potential of −60 mV. Thereafter, depolarizing voltage jumps were applied up to a potential of +20 mV (increment: 20 mV, duration: 1 second) in order to confirm the functional expression of KCNQ2/3-typical currents. The testing of the substances was carried out at a potential of −40 mV. The increase in current induced by retigabine (10 μM) at −40 mV was first recorded as a positive control on each cell. After complete washing out of the retigabine effect (duration: 80 s), the test substance (10 μM) was applied. The increase in current induced by the test substance was standardized to the retigabine effect and indicated as the relative efficacy (see below). Hamill O P, Marty A, Neher E, Sakmann B, Sigworth F J.: Improved patch-clamp techniques for high-resolution current recording from cells and cell-free membrane patches. Pflugers Arch. 1981 August; 391(2):85-100. Voltage-clamp measurements were carried out only for selected compounds: […]
(In patch-clamp work, channel activity is measured electrically.)

Experiment [4] concerns rat. As to the kind of experiment: Chung test on the rat. The experiment is classed as in vivo. The settings on record: iv, i.v. administration. An excerpt:
In addition, Example 89 was investigated in the Chung test on the rat.

As a reminder, the EC50 is the concentration needed to bring the measured effect to its halfway point. Usually ED50 stands for the dose at which the effect has come halfway, by size or by number of responders. A lower ED50 goes with an effect at a small dose.

For the compound `O=C(NCC1CCCCC1)c1cccnc1SCCS(=O)(=O)c1ccccc1` [Example 56, N-(cyclohexylmethyl)-2-(2-(phenylsulfonyl)ethylthio)nicotinamide], in experiment [1] (2.15 mg/kg i.v.), the Change in % is −34.1%. Besides, the EC50 in experiment [2] stood at 1010 nM. In addition, the “MAN rel eff @ 10 μm [RG = 1]” value in experiment [3] was determined as 1.06.
In experiment [2], `O=C(NCCC1CCCCC1)c1cccnc1SCCS(=O)(=O)c1ccccc1` [Example 58, N-(2-cyclohexylethyl)-2-(2-(phenylsulfonyl)ethylthio)nicotinamide] yielded a concentration for a half-maximal effect (EC50) of 1180 nM. Besides, in experiment [3], the “MAN rel eff @ 10 μm [RG = 1]” value was 0.47.
The compound `Cc1ccc(CNC(=O)c2cccnc2SCCS(=O)(=O)c2ccccc2)o1` [Example 61, N-(5-methylfuran-2-ylmethyl)-2-(2-(phenylsulfonyl)ethylthio)nicotinamide] showed an EC50 in experiment [2] of 3470 nM. For the same compound, the “MAN rel eff @ 10 μm [RG = 1]” value in experiment [3] came to 0.81.
`Cc1cccc(CNC(=O)c2cccnc2SCCS(=O)(=O)c2ccccc2)c1` [Example 65, 2-(2-(phenylsulfonyl)ethylthio)-N-(3-tolylmethyl)nicotinamide]: the response in experiment [2] was half-maximal at 580 nM (EC50). Besides, the “MAN rel eff @ 10 μm [RG = 1]” value in experiment [3] was found to be 0.4.
In the case of `O=C(NCc1cccs1)c1cccnc1SCCSc1cccc(C(F)(F)F)c1` [Example 73, N-(thiophen-2-ylmethyl)-2-(2-(3-(trifluoromethyl)phenylthio)ethylthio)-nicotinamide], the Change in % in experiment [1] (1 mg/kg i.v.) is given as −29.9%.
For the compound `O=C(NCc1cccs1)c1cccnc1SCCS(=O)(=O)c1ccccc1` [Example 89, 2-(2-(phenylsulfonyl)ethylthio)-N-(thiophen-2-ylmethyl)nicotinamide], the Change in % in experiment [1] (6.81 mg/kg i.v.) was −74.2%. This compound also returned an ED50 in experiment [4] of 6.3 mg/kg. The EC50 in experiment [2] is 2280 nM; in experiment [3] (patch-clamp, hKCNQ2/3 CHO-K1 cell line, read-out: MAN EC50), 1010 nM.
`O=C(NCc1ccccn1)c1cccnc1SCCS(=O)(=O)c1cccc(C(F)(F)F)c1` [Example 90, N-(pyridin-2-ylmethyl)-2-(2-(3-(trifluoromethyl)phenylsulfonyl)ethylthio)-nicotinamide] showed an EC50 in experiment [2] of 2490 nM. In experiment [3], the “MAN rel eff @ 10 μm [RG = 1]” value amounted to 0.79.
